17 compounds from patent US10888542B2 (SK BIOPHARMACEUTICALS CO., LTD., priority 2014, dated 2021) can be followed below.

Structures are written as SMILES.

The target of assay [1] is T1, dopamine transporter (Rattus norvegicus, UniProt P23977).
T1 construct: The receptor source was rat striatal membranes; from tissue; host or cells: striatum of male SD rats (Orient Korea), membrane preparation
Briefly: Dopamine transporter binding assay ([3H]GBR12935, rat striatal membranes). The note with it: 10 μM test compound, radioligand [3H]GBR12935 1.0 nM, 25° C., 45 minutes. On the procedure:
Rats (SD-rat, Orient Korea, male, 200-250 g) were sacrificed by decapitation. The striata were removed immediately and then stored at −80° C. until used. On the day of the manipulation, the striata were thawed and suspended in 20 volumes of buffer containing 50 mM Tris-HCl and 120 mM NaCl (pH 7.7). The suspension then was centrifuged at 17,700 rpm for 20 minutes. The pellet was resuspended in 20 volumes of the buffer and centrifuged at 17,700 rpm for 20 minutes. This procedure was repeated once more. The pellet obtained was resuspended in a few ml of the buffer and then homogenized. The concentration of the receptor source was determined by Lowry et al., 1951, J. Biol. Chem. 193:265-275.
Dopamine Transporter Assay Protocol
The dopamine reuptake transporter binding assay was performed according to the methods described in Madras et al., 1989, Mol. Pharmacol. 36(4):518-524, and Javitch et al., 1984, Mol. Pharmacol. 26(1):35-44. The receptor source was rat striatal membranes; the radioligand was GBR12935 [prolyene-2,3-^3H] […]

The subject of assay [2] is mice. Briefly: Locomotor activity test (LMA). It is filed as in vivo. To be noted: ip, LMA measured 30 minutes after dosing, counts for 10 minutes, percent change from control. An excerpt:
Psychostimulant activity was examined through the locomotor activity test (LMA). The LMA is a behavioral test developed to predict the efficacy of psychostimulants. The LMA is an attractive test for psychostimulants because it is sensitive and specific. All of the major classes of psychostimulants enhance ambulatory activities in the LMA, including methylphenidate, amphetamine, and many other psychostimulants.
Sixteen (16) mice (3 weeks CrjBgi:CD-1 (ICR) and 8 weeks C57BL/6) were purchased from Orient Bio Inc. (Gyeonggi-do, Korea). The mice were divided into a control group and a drug-treated group (eight (8) mice per group) by a block randomization method. Each of the group was placed in an empty cage and bred under environmental conditions of 19-25° C. with a relative humidity of 40-60% and a lighting cycle of 12 hr light/12 hr dark. Diet and water were supplied ad libitum. After one week of acclimation, the LMA test was carried out. The mice were habituated for over 1 hour in an LMA room before starting the LMA test. After habituation, the test compounds (10 or 30 mg/kg) were administered to the drug-treated group by intraperitoneal injection. At 30 minutes after i.p. dosing, LMA was measured using automated photobeams, Opto-Varimax® (Columbus Instruments, Ohio, US) and recorded on a computer. The total locomoter counts for each mouse were recorded for 10 minutes.
Statistical mean values for control and drug-treated groups were calculated and the percent changes from control were determined.

T1 sequence (P23977 whole entry): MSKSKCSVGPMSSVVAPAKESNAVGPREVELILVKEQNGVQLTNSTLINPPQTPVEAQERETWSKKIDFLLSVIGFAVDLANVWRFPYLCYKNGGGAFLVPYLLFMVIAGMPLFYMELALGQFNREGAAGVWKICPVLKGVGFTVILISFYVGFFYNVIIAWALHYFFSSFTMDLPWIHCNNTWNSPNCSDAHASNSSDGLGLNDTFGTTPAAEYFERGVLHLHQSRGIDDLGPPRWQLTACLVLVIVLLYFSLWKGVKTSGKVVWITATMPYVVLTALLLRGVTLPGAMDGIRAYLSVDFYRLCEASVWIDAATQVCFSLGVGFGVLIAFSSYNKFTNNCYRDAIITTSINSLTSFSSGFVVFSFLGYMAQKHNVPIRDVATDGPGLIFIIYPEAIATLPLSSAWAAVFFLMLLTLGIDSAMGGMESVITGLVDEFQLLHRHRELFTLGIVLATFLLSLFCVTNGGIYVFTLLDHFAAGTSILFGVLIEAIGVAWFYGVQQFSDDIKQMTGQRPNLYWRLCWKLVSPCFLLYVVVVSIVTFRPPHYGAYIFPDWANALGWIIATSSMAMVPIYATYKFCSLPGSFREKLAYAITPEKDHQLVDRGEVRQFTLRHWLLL

What is called inhibition is the percentage by which the read-out fell short of the control. High values mean a response far below the control, low ones a response near the control. Compound `NC(=O)NC(=O)OC[C@H](N)Cc1ccc(Cl)cc1Cl` [Example 6, (2R)-2-Amino-3-(2,4-dichlorophenyl)propyl (aminocarbonyl)carbamate] returned an inhibition at 10 µM in assay [1] of 20.4%. As for `CN(C(N)=O)C(=O)OC[C@H](N)Cc1ccc(Cl)cc1Cl` [Example 21, (2R)-2-amino-3-(2,4-dichlorophenyl)propyl (aminocarbonyl) Methylcarbamate], the inhibition at 10 µM in assay [1] came to 31.5%. Turning to `CN(C)[C@@H](COC(=O)NC(N)=O)Cc1ccccc1.Cl` [Example 4, (2R)-2-(Dimethylamino)-3-phenylpropyl (aminocarbonyl)carbamate], the inhibition at 10 µM in assay [1] worked out at 38.4%. Moreover, in assay [2] (30 mg/kg), the “% ambulation” value is 242.6% (30 mg/kg, ip).

In the case of `NC(=O)NC(=O)OCC(N)Cc1ccc(Cl)cc1` (stereo not shown) [Example 9], the inhibition at 10 µM in assay [1] stood at 42.8%. On the same count and under the same terms, the result for `CN(C(N)=O)C(=O)OC[C@H](N)Cc1ccc(F)cc1` [Example 19, 2-Amino-3-(4-fluorophenyl)propyl(aminocarbonyl)methylcarbamate] reads 34.3%. In assay [1], `CN(C(N)=O)C(=O)OC[C@H](N)Cc1ccccc1` [Example 8] yielded an inhibition at 10 µM of 20.3%. Also, the “% ambulation” value in assay [2] (30 mg/kg) is 186.4% (30 mg/kg, ip).

In assay [1], `NC(=O)N(Cc1ccccc1)C(=O)OC[C@H](N)Cc1ccccc1` [Example 16, (2R)-2-Amino-3-phenylpropyl (aminocarbonyl)benzylcarbamate] came in with an inhibition at 10 µM of 20.8%. In assay [1], `CC(C)N[C@@H](COC(=O)NC(N)=O)Cc1ccccc1.Cl` [Example 3, (2R)-2-(Isopropylamino)-3-phenylpropyl (aminocarbonyl)carbamate] showed an inhibition at 10 µM of 40.1%. Moreover, the “% ambulation” value in assay [2] (30 mg/kg) is given as 291.5% (30 mg/kg, ip).

For the compound `CN(C(N)=O)C(=O)OCC(N)Cc1ccccc1` (stereo not shown) [Example 24], at 10 µM the inhibition in assay [1] was 45%. In assay [1], `NC(=O)NC(=O)OC[C@H](N)Cc1ccc(Cl)c(Cl)c1` [Example 7, (2R)-2-Amino-3-(3,4-dichlorophenyl)propyl (aminocarbonyl)carbamate] yielded an inhibition at 10 µM of 41.2%. In assay [1], `CN(C(N)=O)C(=O)OC[C@H](N)Cc1ccccc1Cl` [Example 18] returned an inhibition at 10 µM of 17.5%. `CN[C@@H](COC(=O)NC(N)=O)Cc1ccccc1` [Example 14] registered an inhibition at 10 µM in assay [1] of 35.9%. For the compound `CCN(C(N)=O)C(=O)OC[C@H](N)Cc1ccccc1` [Example 17, (2R)-2-Amino-3-phenylpropyl(aminocarbonyl)ethylcarbamate], in assay [1], testing at 10 µM gave an inhibition of 41.2%. As for `Cl.NC(=O)NC(=O)OC[C@H](N)Cc1ccccc1` [Example 2, (2R)-2-Amino-3-phenylpropyl (aminocarbonyl)carbamate], in assay [1], testing at 10 µM gave an inhibition of 50.1%. Besides, in assay [2] (30 mg/kg), the “% ambulation” value was 118.7% (30 mg/kg, ip). The compound `N[C@@H](COC(=O)NC(=O)Nc1ccccc1)Cc1ccccc1` [Example 29, (2R)-2-Amino-3-phenylpropyl (anilinocarbonyl)carbamate] gave an inhibition at 10 µM in assay [1] of 50.7%. With `CN(C(N)=O)C(=O)OC[C@@H](Cc1ccccc1)N(C)C` [Example 15], the inhibition at 10 µM in assay [1] was determined as 55.5%. In addition, the “% ambulation” value in assay [2] (10 mg/kg) is 202.2% (10 mg/kg, ip).

With `CN(C(N)=O)C(=O)OC[C@H](N)Cc1ccc(Cl)c(Cl)c1` [Example 22, (2R)-2-Amino-3-(3,4-dichlorophenyl)propyl (aminocarbonyl) Methylcarbamate], in assay [1], testing at 10 µM gave an inhibition of 37%.
